Test results from US20240066027A1 (DOMAIN THERAPEUTICS, priority 2020, published 2024).

Biological target: T1, human PAR-2 (hPAR-2) receptor expressed in HEK-293 T cells in an endogenous manner (Homo sapiens, UniProt P55085)
T1 construct: human PAR-2 (hPAR-2) receptor expressed in HEK-293 T cells in an endogenous manner; endogenous in cells; host or cells: HEK-293 T cells
T1 sequence (P55085 26-397): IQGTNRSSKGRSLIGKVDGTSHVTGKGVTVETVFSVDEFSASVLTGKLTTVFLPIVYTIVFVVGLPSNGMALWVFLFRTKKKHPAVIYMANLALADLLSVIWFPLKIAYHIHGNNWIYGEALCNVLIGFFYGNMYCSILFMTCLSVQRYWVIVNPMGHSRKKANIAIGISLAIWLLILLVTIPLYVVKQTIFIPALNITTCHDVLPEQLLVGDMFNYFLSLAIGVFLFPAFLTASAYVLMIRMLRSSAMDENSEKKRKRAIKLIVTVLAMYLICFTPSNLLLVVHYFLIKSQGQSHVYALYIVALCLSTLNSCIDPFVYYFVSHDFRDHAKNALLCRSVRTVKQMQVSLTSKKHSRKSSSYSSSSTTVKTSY
Experiment: In vitro human PAR-2 functional antagonist activity using calcium assays (Fluo4AM, FLIPR Tetra)
Format: cell-based
Settings: HEK-293 T cells stimulated by an EC80 of the 2-Furoyl-LIGRLO-NH2 peptide after 10 min incubation with compound; 20 concentrations, duplicate, two independent experiments
Summary of the method: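 Fluo4AM-loaded HEK-293 T cells were exposed to compound for 10 min to read agonist effect. They were then stimulated with an EC80 of 2-Furoyl-LIGRLO-NH2 and intracellular calcium was recorded for 5 more min on FLIPR. Antagonism was scored against buffer basal and EC80 agonist-alone signals.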

IC50 [nM] | SMILES
20 to 10000 | Cc1cc(N2CCN(C(=O)c3ccc4c(-c5ccc(Cl)c(F)c5)cn(Cc5ncco5)c4n3)C(C)(C)C2)nc(C)c1C(=O)O [Example 173]
20 to 10000 | Cc1cc(N2CCN(C(=O)c3ccc4c(-c5ccc(Cl)c(F)c5)cn(CC(C)(C)O)c4n3)C(C)(C)C2)nc(C)c1C(=O)O [Example 180, 6-(4-(3-(4-chloro-3-fluorophenyl)-1-(2-hydroxy-2-methylpropyl)-1H-pyrrolo[2,3-b]pyridine-6-carbonyl)-3,3-dimethylpiperazin-1-yl)-2,4-dimethylnicotinic acid]
< 20 | Cc1cc(N2CCN(C(=O)c3ccc4c(-c5ccc(Cl)c(F)c5)cn(CC5(C)COC5)c4n3)C(C)(C)C2)nc(C)c1C(=O)O [Example 181, 6-(4-(3-(4-chloro-3-fluorophenyl)-1-((3-methyloxetan-3-yl)methyl)-1H-pyrrolo[2,3-b]pyridine-6-carbonyl)-3,3-dimethylpiperazin-1-yl)-2,4-dimethylnicotinic acid]
20 to 10000 | Cc1cc(N2CCN(C(=O)c3ccc4c(-c5ccc(Cl)c(F)c5)cn(C[C@@H]5CCOC5)c4n3)C(C)(C)C2)nc(C)c1C(=O)O [Example 182, (S)-6-(4-(3-(4-chloro-3-fluorophenyl)-1-((tetrahydrofuran-3-yl)methyl)-1H-pyrrolo[2,3-b]pyridine-6-carbonyl)-3,3-dimethylpiperazin-1-yl)-2,4-dimethylnicotinic acid]

The remaining lines, values behind:

SMILES | IC50 [nM]
Cc1cc2c(-c3ccc(Cl)c(F)c3)cn(CC(C)C)c2nc1C(=O)N1CCN(c2cc(C)c(C(=O)O)c(C)n2)CC1(C)C [Example 174, 6-(4-(3-(4-chloro-3-fluorophenyl)-1-isobutyl-5-methyl-1H-pyrrolo[2,3-b]pyridine-6-carbonyl)-3,3-dimethylpiperazin-1-yl)-2,4-dimethylnicotinic acid] | 20 to 10000
Cc1cc(N2CCN(C(=O)c3ncc4c(-c5ccc(Cl)c(F)c5)cn(CC(C)C)c4n3)C(C)(C)C2)nc(C)c1C(=O)O [Example 175, 6-(4-(5-(4-chloro-3-fluorophenyl)-7-isobutyl-7H-pyrrolo[2,3-d]pyrimidine-2-carbonyl)-3,3-dimethylpiperazin-1-yl)-2,4-dimethylnicotinic acid] | 20 to 10000
CC(C)(C#N)c1ccnc(N2CCN(C(=O)c3ccc4c(-c5ccc(Cl)c(F)c5)cn(C(C)(C)C)c4n3)C(C)(C)C2)c1 [Example 176, 2-(2-(4-(1-(tert-butyl)-3-(4-chloro-3-fluorophenyl)-1H-pyrrolo[2,3-b]pyridine-6-carbonyl)-3,3-dimethylpiperazin-1-yl)pyridin-4-yl)-2-methylpropanenitrile] | < 20
CC(C)(C(N)=O)c1ccnc(N2CCN(C(=O)c3ccc4c(-c5ccc(Cl)c(F)c5)cn(C(C)(C)C)c4n3)C(C)(C)C2)c1 [Example 177, 2-(2-(4-(1-(tert-butyl)-3-(4-chloro-3-fluorophenyl)-1H-pyrrolo[2,3-b]pyridine-6-carbonyl)-3,3-dimethylpiperazin-1-yl)pyridin-4-yl)-2-methylpropanamide] | < 20
CCOP(=O)(OCC)c1ccc(N2CCN(C(=O)c3ccc4c(-c5ccc(Cl)c(F)c5)cn(C(C)(C)C)c4n3)C(C)(C)C2)nc1 [Example 178, diethyl (6-(4-(1-(tert-butyl)-3-(4-chloro-3-fluorophenyl)-1H-pyrrolo[2,3-b]pyridine-6-carbonyl)-3,3-dimethylpiperazin-1-yl)pyridin-3-yl)phosphonate] | 20 to 10000
Cc1cc(N2CCN(C(=O)c3ccc4c(-c5ccc(Cl)c(F)c5)cn(C(C)(C)C)c4n3)[C@@H](C)C2)nc(C)c1C(=O)O [Example 179, (S)-6-(4-(1-(tert-butyl)-3-(4-chloro-3-fluorophenyl)-1H-pyrrolo[2,3-b]pyridine-6-carbonyl)-3-methylpiperazin-1-yl)-2,4-dimethyinicotinic acid] | 20 to 10000
